Results on 15 compounds are retold here after patent US5739161A, “Agent for treating hepto.biliary diseases” (priority 1994, dated 1998).

Data set [1] deals with acute hepatopathy model (galactosamine-elicited). Put plainly: D-galactosamine acute hepatopathy model in rats, serum biochemical liver function test (inhibiting ratio). The class given is in vivo, rat (Crj: Wister). The following applies: rat, oral; for inhibition in vivo at 1 mg/kg / inhibition in vivo at 0.1 mg/kg / inhibition in vivo at 0.03 mg/kg / inhibition in vivo at 0.01 mg/kg: 24 h; for inhibition in vivo at 0.01 mg/kg: 10 μg/kg × 3. As for the experimental part: (§1) Crj: Wister rats (7 weeks old, weight: 220-250 g) were kept without food for 16 hours, and hydrochloric acid-D-galactosamine 800 mg/kg was administrated by intra peritonealy injection in order to elicit acute hepatopathy model. After 24 hours from the administration of galactosamine, blood sample was collected under ether anesthesia and a serum was separated. The serum was assayed for serum biochemical profile of liver function test by an automatic analyzer (AU 550 available Orympus Kogaku Kogyo K.K.).
(§2) Test compound was dissolved in 0.5% ethanol physiological saline, which was orally administered by force using an oral sonde for rat at 30 minutes before, 2 hours and 6 hours after the administration of the galactosamine.
The following four items were tested for the serum biochemical liver function test: glutamic oxaloacetic transaminase (GOT), glutamic pyruvic transaminase (GPT) lactate dehydrogenase (LDH)
The inhibiting Ratio (%) was obtained by the results of the serum biochemical profile of liver functional test how much the increases in the above four items by the administration of galactosamine was inhibited by the test compounds. The Inhibiting, Ratio (%) was calculated by the following equation: [formula] (All of the data in the equation are represented by average) […]
(§3) This test was carried out according the same manner as in the Example 1 providing the following compounds were used as test compounds.
(§4) This test was carried out according the same manner as in the Example 1 using the following compounds as test compounds.
(§5) This test was carried out according the same manner as in the Example 1 excepting the following compounds were used as test compounds.

Data set [2] can be described thus: observation of diarrhea and loose feces in the rats. It is filed as in vivo, rat (Crj: Wister). Particulars: rat, oral. As for the experimental part: as §1, §2
The generation of a diarrhea and a loose feces observed up to 2 hours after the 3rd administration of the test compounds, and the number of the rats having diarrhea or loose feces were recorded.
as §3, §4, §5

The test system of another data set is hepatocyte. The following applies: cited from earlier work.
The mark [3] stands for this setting: 1000 μg/kg × 3, read-out: inhibiting ratio GOT.
The mark [4] stands for this setting: 1000 μg/kg × 3, read-out: inhibiting ratio GPT.
Setting [5] is: 1000 μg/kg × 3, read-out: inhibiting ratio T-Bil.
[6] abbreviates: 1000 μg/kg × 3, up to 2 hours after 3rd administration.
[7] abbreviates: 100 μg/kg × 3, read-out: inhibiting ratio GOT.
[8] abbreviates: 100 μg/kg × 3, read-out: inhibiting ratio GPT.
The mark [9] stands for this setting: 100 μg/kg × 3, read-out: inhibiting ratio T-Bil.
The mark [10] stands for this setting: 100 μg/kg × 3, up to 2 hours after 3rd administration.
[11] abbreviates: 30 μg/kg × 3, read-out: inhibiting ratio GOT.
[12] abbreviates: 30 μg/kg × 3, read-out: inhibiting ratio GPT.
[13] abbreviates: 30 μg/kg × 3, read-out: inhibiting ratio T-Bil.
[14] abbreviates: 30 μg/kg × 3, up to 2 hours after 3rd administration.
[15] abbreviates: read-out: inhibiting ratio T-Bil.
[16] abbreviates: 10 μg/kg × 3, up to 2 hours after 3rd administration.

Where two headings read alike, the source gives them in different places.

Consider `CC(C)C[C@@H](C)C(F)(F)C(=O)CC[C@H]1[C@H](O)CC(=O)[C@@H]1CCCCCCC(=O)O` [Test Compound 6, 7-[(1R,2R,3R)-2-{4,4-difluoro-5(R),7-dimethyl-3-oxooctyl}-3-hydroxy-5-oxocyclopentyl]heptanoic acid], for which the results for the inhibition in vivo at 1 mg/kg in data set [1] (setting [3]), in data set [1] (setting [4]) and in data set [1] (setting [5]) were 60%, 71% and 88%, respectively. Also, the “inhibiting ratio LDH” value in data set [1] (1000 μg/kg × 3) is given as 63%. Further, in data set [2] (setting [6]), the “diarrhea / loose feces (number of rats having diarrhea or loose feces)” value (“diarrhea / loose feces” for short) is recorded as “no diarrhea”.
Turning to `CC(C)CCC(F)(F)C(=O)CC[C@H]1[C@H](O)CC(=O)[C@@H]1CCCCCCC(=O)O` [Test Compound 5, 7-[(1R,2R,3R)-2-(4,4-difluoro-7-methyl-3-oxooctyl)-3-hydroxy-5-oxocyclopentyl]heptanoic acid], the inhibition in vivo at 0.1 mg/kg in data set [1] (setting [7]) amounted to 51%; in data set [1] (setting [8]), 66%; in data set [1] (setting [9]), 72%. The “inhibiting ratio LDH” value in data set [1] (100 μg/kg × 3) was found to be 59%. Further, in data set [2] (setting [10]), the “diarrhea / loose feces” value is on record as “no diarrhea in any cases”.
`CC(C)CCC(F)(F)C(=O)CC[C@H]1[C@H](O)CC(=O)[C@@H]1C/C=C\CCCC(=O)O` [Test Compound 2, Z-7-[(1R,2R,3R)-2-(4,4-difluoro-7-methyl-3-oxooctyl)-3-hydroxy-5-oxocyclopentyl]hept-5-enoic acid]: the inhibition in vivo at 0.03 mg/kg in data set [1] (setting [11]) is 29%; in data set [1] (setting [12]), 36%; in data set [1] (setting [13]), 51%. Moreover, in data set [1] (30 μg/kg × 3), the “inhibiting ratio LDH” value came to 32%. Besides, the “diarrhea / loose feces” value in data set [2] (setting [14]) is reported as “no diarrhea was observed in every rat”.
For the compound `CCCCC(C)(C)[C@H](O)/C=C/[C@H]1[C@H](O)CC(=O)[C@@H]1C/C=C\CCCC(=O)O` [16,16-dimethyl-PGE2], in the data set with hepatocyte, the hepatocyte protecting activity entry is recorded as “have a hepatocyte protecting activity”.
Turning to `CC[C@@H](C)CC(F)(F)C(=O)CC[C@H]1[C@H](O)CC(=O)[C@@H]1CCCCCCC(=O)O` [Test Compound 11, 7-[(1R,2R,3R)-2-{4,4-difluoro-6(R)-methyl-3-oxooctyl}-3-hydroxy-5-oxocyclopentyl]heptanoic acid], the values for the inhibition in vivo at 0.01 mg/kg in data set [1] (read-out: inhibiting ratio GOT), in data set [1] (read-out: inhibiting ratio GPT) and in data set [1] (setting [15]) were 45%, 34% and 56%, respectively. Further, the “diarrhea / loose feces” value in data set [2] (setting [16]) was “non”.
Take `CCC[C@@H](C)C(F)(F)C(=O)CC[C@H]1[C@H](O)CC(=O)[C@@H]1CCCCCCC(=O)O` [Test Compound 4, 7-[(1R,2R,3R)-2-{4,4-difluoro-5(R)-methyl-3-oxooctyl}-3-hydroxy-5-oxocyclopentyl]heptanoic acid]: the results for the inhibition in vivo at 0.1 mg/kg in data set [1] (setting [7]), in data set [1] (setting [8]) and in data set [1] (setting [9]) were 54%, 57% and 89%, respectively. Moreover, the “inhibiting ratio LDH” value in data set [1] (100 μg/kg × 3) is on record as 51%. The “diarrhea / loose feces” value in data set [2] (setting [10]) is “no diarrhea in any cases”.
`CC(C)CC(F)(F)C(=O)CC[C@H]1[C@H](O)CC(=O)[C@@H]1CCCCCCC(=O)O` [Test Compound 12, 7-[(1R,2R,3R)-2-(4,4-difluoro-6-methyl-3-oxoheptyl)-3-hydroxy-5-oxocyclopentyl]heptanoic acid]: the inhibition in vivo at 0.1 mg/kg in data set [1] (setting [7]) is 38%; in data set [1] (setting [8]) it was 40%; in data set [1] (setting [9]), 69%. In addition, the “diarrhea / loose feces” value in data set [2] (setting [10]) was “non”.
Take `CCC[C@@H](C)C(F)(F)C(=O)CC[C@H]1CCC(=O)[C@@H]1CCCCCCC(=O)O` [Test Compound 10, 7-[(1R,2R)-2-{4,4-difluoro-5(R)-methyl-3-oxooctyl}-5-oxocyclopentyl]heptanoic acid]: the values for the inhibition in vivo at 0.1 mg/kg in data set [1] (setting [7]), in data set [1] (setting [8]) and in data set [1] (setting [9]) were 36%, 39% and 59%, respectively. In data set [2] (setting [10]), the “diarrhea / loose feces” value is “non”.
As to `CC[C@H](C)CC(F)(F)C(=O)CC[C@H]1[C@H](O)CC(=O)[C@@H]1CCCCCCC(=O)O` [Test Compound 9, 7-[(1R,2R,3R)-2-{4,4-difluoro-6(S)-methyl-3-oxooctyl}-3-hydroxy-5-oxocyclopentyl]heptanoic acid], the inhibition in vivo at 0.1 mg/kg in data set [1] (setting [7]) is 44%; in data set [1] (setting [8]), 54%; in data set [1] (setting [9]) it was 80%. Also, the inhibition in vivo at 1 mg/kg in data set [1] (setting [3]) is 84%; in data set [1] (setting [4]) it was 88%; in data set [1] (setting [5]), 95%. Moreover, the “diarrhea / loose feces” value in data set [2] (setting [10]) and in data set [2] (setting [6]) was “non” throughout.
Consider `CCC[C@H](C)C(F)(F)C(=O)CC[C@H]1[C@H](O)CC(=O)[C@@H]1CCCCCCC(=O)O` [Test Compound 8], for which the inhibition in vivo at 1 mg/kg in data set [1] (setting [3]) worked out at 59%; in data set [1] (setting [4]), 56%; in data set [1] (setting [5]) it was 92%. The “inhibiting ratio LDH” value in data set [1] (1000 μg/kg × 3) was 63%. For the same compound, the “diarrhea / loose feces” value in data set [2] (setting [6]) was “no diarrhea”.
On to `CC(C)CCC(F)(F)C(=O)CC[C@H]1CCC(=O)[C@@H]1CCCCCCC(=O)O` [Test Compound 7, 7-[(1R,2R)-2-(4,4-difluoro-7-methyl-3-oxooctyl)-5-oxocyclopentyl]heptanoicacid], for which the inhibition in vivo at 1 mg/kg in data set [1] (setting [3]) worked out at 52%; in data set [1] (setting [4]) it was 63%; in data set [1] (setting [5]) it was 86%. Moreover, the “inhibiting ratio LDH” value in data set [1] (1000 μg/kg × 3) was determined as 62%. Moreover, in data set [2] (setting [6]), the “diarrhea / loose feces” value is “no diarrhea”.
Turning to `CCCCC(F)(F)C(=O)CC[C@H]1[C@H](O)CC(=O)[C@@H]1CCCCCCC(=O)O` [Test Compound 3, 13,14-dihydro-15-keto-16,16-difluoro-PGE1, reference compound], the inhibition in vivo at 0.1 mg/kg was 63% in data set [1] (setting [7]), 76% in data set [1] (setting [8]) and 80% in data set [1] (setting [9]). The “inhibiting ratio LDH” value in data set [1] (100 μg/kg × 3) is recorded as 61%. Further, the “diarrhea / loose feces” value in data set [2] (setting [10]) was 1/6. Also, in data set [2] (setting [10]), the “loose feces (number of rats)” value is 2/6.
On to `CCC(CC)CC(F)(F)C(=O)CC[C@H]1[C@H](O)CC(=O)[C@@H]1CCCCCCC(=O)O` [Test Compound 13, 7-[(1R,2R,3R)-2-(4,4-difluoro-6-ethyl-3-oxooctyl)-3-hydroxy-5-oxocyclopentyl]heptanoic acid], for which the inhibition in vivo at 0.01 mg/kg in data set [1] (read-out: inhibiting ratio GOT) was 47%; in data set [1] (read-out: inhibiting ratio GPT), 42%; in data set [1] (setting [15]), 75%. Further, the “diarrhea / loose feces” value in data set [2] (setting [16]) was “non”.
For the compound `CCCCC(F)(F)C(=O)CC[C@H]1[C@H](O)CC(=O)[C@@H]1C/C=C\CCCC(=O)O` [Test Compound 1, 13,14-dihydro-15-keto-16,16-difluoro-PGE2, reference compound], the inhibition in vivo at 0.03 mg/kg in data set [1] (setting [11]) was 28%; in data set [1] (setting [12]), 42%; in data set [1] (setting [13]), 82%. Besides, the “inhibiting ratio LDH” value in data set [1] (30 μg/kg × 3) turned out to be 22%. The “diarrhea / loose feces” value in data set [2] (setting [14]) is listed as 3/10.
For `CCCCC[C@@](C)(O)/C=C/[C@H]1[C@H](O)CC(=O)[C@@H]1C/C=C\CCCC(=O)O` [15-methyl-PGE2], the hepatocyte protecting activity entry with hepatocyte is listed as “have a hepatocyte protecting activity”.
